Results from patent US20240208978A1, “IDH MUTANT INHIBITOR AND USE THEREOF” (WIGEN BIOMEDICINE TECHNOLOGY (SHANGHAI) CO., LTD., priority 2021, published 2024).

Assays:
mIDH1 R132H = biological target: T1, mIDH1 R132H (Homo sapiens, UniProt O75874, R132H); test: Detection of 2-HG in supernatant of U87-IDH1 R132H cells; assay type: cell-based; conditions: U-87 MG, 72 h, U87MG cells overexpressing mIDH1 R132H, LC-MS-MS; for inhibition at 0.001 µM: 1 nM compound, read-out: Inhibition rate on 2-HG in the supernatant of U87-IDH R132H cells, 1 nM; for inhibition at 0.01 µM: 10 nM compound, read-out: Inhibition rate on 2-HG in the supernatant of U87-IDH R132H cells, 10 nM; for inhibition at 0.1 µM: 100 nM compound, read-out: Inhibition rate on 2-HG in the supernatant of U87-IDH R132H cells, 100 nM
T1 construct: expressed in transfected cells; host or cells: U87MG
Procedure: (§1) U87MG cells overexpressing the mIDH1 R132H mutation or HT1080 cells carrying IDH1 R132C were seeded in a 48-well plate and a 96-well plate at 50,000 cells/well and 10,000 cells/well, respectively. After the cells were incubated overnight for adhesion, the supernatants were removed. The cell culture media containing serially diluted compounds were added, and the cells were incubated for 72 h. After 72 h, the culture media were collected and diluted 10-fold and 20-fold with water, respectively. Acetonitrile was added to extract the metabolites. The 2-HG content in the culture media was analyzed by LC-MS-MS. The percentage inhibition and IC50 of the compounds on 2-HG in the supernatant were calculated as compared with the control group.

IDH1 R132C = biological target: T2, IDH1 R132C (Homo sapiens, UniProt O75874, R132C); test: Detection of 2-HG in supernatant of HT1080 cells carrying IDH1 R132C; assay type: cell-based; conditions: 72 h, LC-MS-MS
T2 construct: endogenous in cells; host or cells: HT1080
Procedure: as §1

T1 sequence (O75874 whole entry R132H): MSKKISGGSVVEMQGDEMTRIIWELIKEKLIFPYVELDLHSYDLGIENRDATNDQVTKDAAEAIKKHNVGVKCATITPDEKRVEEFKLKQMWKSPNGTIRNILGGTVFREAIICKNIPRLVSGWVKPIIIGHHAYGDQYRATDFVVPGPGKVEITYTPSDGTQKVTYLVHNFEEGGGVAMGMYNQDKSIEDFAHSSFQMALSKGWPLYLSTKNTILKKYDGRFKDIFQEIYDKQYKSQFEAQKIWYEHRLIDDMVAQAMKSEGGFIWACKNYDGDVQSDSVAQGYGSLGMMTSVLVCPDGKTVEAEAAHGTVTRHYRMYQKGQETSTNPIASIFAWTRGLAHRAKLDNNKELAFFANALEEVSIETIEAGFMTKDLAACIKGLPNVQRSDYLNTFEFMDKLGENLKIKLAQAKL
T2 sequence (O75874 whole entry R132C): as the sequence (O75874 whole entry R132H) above, with H132C counted along it

Compound | inhibition at 0.001 µM (mIDH1 R132H) | inhibition at 0.01 µM (mIDH1 R132H) | inhibition at 0.1 µM (mIDH1 R132H) | IC50 (IDH1 R132C)
C=CC(=O)N1CCN(C(CC2CC2)c2ccc([C@H](C)Nc3ncc4[nH]c(=O)n(C)c4n3)cc2)CC1 (some centres unmarked) [Compound 2] | 30 to 60% | 60 to 90% | > 90% | 
C=CC(=O)N1CCN([C@H](CC2CC2)c2ccc([C@H](C)Nc3ncc4[nH]c(=O)n(C(C)C)c4n3)cc2)CC1 [Compound 3-2] |  |  |  | 2.36 nM
C=CC(=O)N1CCN([C@@H](CC2CC2)c2ccc([C@H](C)Nc3ncc4[nH]c(=O)n(C5CC5)c4n3)cc2)CC1 [Compound 4-1] |  |  |  | 11.5 nM
C=CC(=O)N1CCN(C(CC2CC2)c2ccc([C@H](C)Nc3ncc4[nH]c(=O)n(C5CC5)c4n3)cc2)CC1 (some centres unmarked) [Compound 4] | 30 to 60% | > 90% | > 90% | 
C=CC(=O)N1CCN(C(CC2CC2)c2ccc([C@H](C)Nc3ncc4[nH]c(=O)n(C5CCC5)c4n3)cc2)CC1 (some centres unmarked) [Compound 5] | 30 to 60% | > 90% | > 90% | 
C=CC(=O)N1CCN(C(CC2CC2)c2ccc([C@H](C)Nc3ncc4[nH]c(=O)n(C5CCCC5)c4n3)cc2)CC1 (some centres unmarked) [Compound 6] | < 30% | 60 to 90% | > 90% | 
C=CC(=O)N1CCN(C(CC)c2ccc([C@H](C)Nc3ncc4[nH]c(=O)n(CC)c4n3)cc2)CC1 (some centres unmarked) [Compound 7] | 30 to 60% | 60 to 90% | > 90% | 
C=CC(=O)N1CCN(C(CC(C)C)c2ccc([C@H](C)Nc3ncc4[nH]c(=O)n(CC)c4n3)cc2)CC1 (some centres unmarked) [Compound 8] | 30 to 60% | > 90% | > 90% | 
C=CC(=O)N1CCN(C(CC2CCC2)c2ccc([C@H](C)Nc3ncc4[nH]c(=O)n(CC)c4n3)cc2)CC1 (some centres unmarked) [Compound 10] | 30 to 60% | 60 to 90% | > 90% | 
C=CC(=O)N1CCN(C(CC(C)(C)C)c2ccc([C@H](C)Nc3ncc4[nH]c(=O)n(CC)c4n3)cc2)CC1 (some centres unmarked) [Compound 11] | 30 to 60% | 60 to 90% | > 90% | 
C=CC(=O)N1CCN(C(CC23CC(C2)C3)c2ccc([C@H](C)Nc3ncc4[nH]c(=O)n(CC)c4n3)cc2)CC1 (some centres unmarked) [Compound 12] | 30 to 60% | > 90% | > 90% | 
C=CC(=O)N1CCN(C(CC2(C)CC2)c2ccc([C@H](C)Nc3ncc4[nH]c(=O)n(CC)c4n3)cc2)CC1 (some centres unmarked) [Compound 13] | 30 to 60% | 60 to 90% | > 90% | 
C=CC(=O)N1CCN(C(CC)(CC)c2ccc([C@H](C)Nc3ncc4[nH]c(=O)n(CC)c4n3)cc2)CC1 [Compound 14] | 30 to 60% | > 90% | > 90% | 
C=CC(=O)N1CCN(C2(c3ccc([C@H](C)Nc4ncc5[nH]c(=O)n(CC)c5n4)cc3)CCCC2)CC1 [Compound 15] | 30 to 60% | > 90% | > 90% | 
C=CC(=O)N1CCN(C2(c3ccc([C@H](C)Nc4ncc5[nH]c(=O)n(CC)c5n4)cc3)CCCCC2)CC1 [Compound 16] | 30 to 60% | 60 to 90% | > 90% | 
C=CC(=O)N1CCN(C2(c3ccc([C@H](C)Nc4ncc5[nH]c(=O)n(CC)c5n4)cc3)CCC(F)(F)CC2)CC1 [Compound 17] | 30 to 60% | 60 to 90% | > 90% | 
C=CC(=O)N1CC2(C1)CN(C(CC1CC1)c1ccc([C@H](C)Nc3ncc4[nH]c(=O)n(CC)c4n3)cc1)C2 (some centres unmarked) [Compound 18] | 30 to 60% | > 90% | > 90% | 

Other lines, results leading:

inhibition at 0.001 µM (mIDH1 R132H) | inhibition at 0.01 µM (mIDH1 R132H) | inhibition at 0.1 µM (mIDH1 R132H) | IC50 (IDH1 R132C) | Compound
30 to 60% | 60 to 90% | > 90% |  | C=CC(=O)N1CCC2(C1)CN(C(CC1CC1)c1ccc([C@H](C)Nc3ncc4[nH]c(=O)n(CC)c4n3)cc1)C2 (some centres unmarked) [Compound 19]
30 to 60% | 60 to 90% | > 90% |  | C=CC(=O)N1CCC2(CC1)CN(C(CC1CC1)c1ccc([C@H](C)Nc3ncc4[nH]c(=O)n(CC)c4n3)cc1)C2 (some centres unmarked) [Compound 20]
30 to 60% | 60 to 90% | > 90% |  | C=CC(=O)N1CC2(CCN(C(CC3CC3)c3ccc([C@H](C)Nc4ncc5[nH]c(=O)n(CC)c5n4)cc3)C2)C1 (some centres unmarked) [Compound 21]
60 to 90% | 60 to 90% | > 90% |  | C=CC(=O)N1CC2(CCN(C(CC3CC3)c3ccc([C@H](C)Nc4ncc5[nH]c(=O)n(CC)c5n4)cc3)CC2)C1 (some centres unmarked) [Compound 22]
30 to 60% | 60 to 90% | > 90% |  | C=CC(=O)N1CCC(N(C)C(CC2CC2)c2ccc([C@H](C)Nc3ncc4[nH]c(=O)n(CC)c4n3)cc2)CC1 (some centres unmarked) [Compound 23]
30 to 60% | 60 to 90% | > 90% |  | C=CC(=O)N1CC(N(C)C(CC2CC2)c2ccc([C@H](C)Nc3ncc4[nH]c(=O)n(CC)c4n3)cc2)C1 (some centres unmarked) [Compound 24]
60 to 90% | 60 to 90% | > 90% |  | C=CC(=O)NC1CN(C(CC2CC2)c2ccc([C@H](C)Nc3ncc4[nH]c(=O)n(CC)c4n3)cc2)C1 (some centres unmarked) [Compound 25]
60 to 90% | 60 to 90% | > 90% |  | C=CC(=O)NC1CCN(C(CC2CC2)c2ccc([C@H](C)Nc3ncc4[nH]c(=O)n(CC)c4n3)cc2)CC1 (some centres unmarked) [Compound 26]
< 30% | 60 to 90% | > 90% |  | C=CC(=O)N(C)C1CN(C(CC2CC2)c2ccc([C@H](C)Nc3ncc4[nH]c(=O)n(CC)c4n3)cc2)C1 (some centres unmarked) [Compound 27]
30 to 60% | 60 to 90% | > 90% |  | C=CC(=O)N(C)C1CCN(C(CC2CC2)c2ccc([C@H](C)Nc3ncc4[nH]c(=O)n(CC)c4n3)cc2)CC1 (some centres unmarked) [Compound 28]
60 to 90% | > 90% | > 90% |  | C=CC(=O)N1CCN(C(CC(C)C)c2ccc([C@H](C)Nc3ncc4[nH]c(=O)n(C(C)C)c4n3)cc2)CC1 (some centres unmarked) [Compound 29]
30 to 60% | > 90% | > 90% |  | C=CC(=O)N1CCN(C(CC(C)C)c2ccc([C@H](C)Nc3ncc4[nH]c(=O)n(C5CC5)c4n3)cc2)CC1 (some centres unmarked) [Compound 30]
30 to 60% | > 90% | > 90% |  | C=CC(=O)N1CCN(C(CC(C)C)c2ccc([C@H](C)Nc3ncc4[nH]c(=O)n(C5CCC5)c4n3)cc2)CC1 (some centres unmarked) [Compound 31]
30 to 60% | > 90% | > 90% |  | C=CC(=O)N1CCN(C(CC(C)C)c2ccc([C@H](C)Nc3ncc4[nH]c(=O)n(C5CCCC5)c4n3)cc2)CC1 (some centres unmarked) [Compound 32]
60 to 90% | > 90% | > 90% |  | C=CC(=O)N1CCN(C(CC23CC(C2)C3)c2ccc([C@H](C)Nc3ncc4[nH]c(=O)n(C(C)C)c4n3)cc2)CC1 (some centres unmarked) [Compound 33]
60 to 90% | > 90% | > 90% |  | C=CC(=O)N1CCN(C(CC23CC(C2)C3)c2ccc([C@H](C)Nc3ncc4[nH]c(=O)n(C5CC5)c4n3)cc2)CC1 (some centres unmarked) [Compound 34]
30 to 60% | > 90% | > 90% |  | C=CC(=O)N1CCN(C(CC23CC(C2)C3)c2ccc([C@H](C)Nc3ncc4[nH]c(=O)n(C5CCC5)c4n3)cc2)CC1 (some centres unmarked) [Compound 35]
30 to 60% | > 90% | > 90% |  | C=CC(=O)N1CCN(C(CC23CC(C2)C3)c2ccc([C@H](C)Nc3ncc4[nH]c(=O)n(C5CCCC5)c4n3)cc2)CC1 (some centres unmarked) [Compound 36]
< 30% | 60 to 90% | 60 to 90% |  | C=CC(=O)N1CCN(C(CC2CC2)c2ccc([C@H](C)Nc3ncc4c(n3)n(CC)c(=O)n4C)cc2)CC1 (some centres unmarked) [Compound 37]
< 30% | 60 to 90% | 60 to 90% |  | C=CC(=O)N1CCN(C(CC2CC2)c2ccc([C@H](C)Nc3ncc4c(n3)n(C(C)C)c(=O)n4C)cc2)CC1 (some centres unmarked) [Compound 38]
< 30% | 60 to 90% | > 90% |  | C=CC(=O)N1CCN(C(CC2CC2)c2ccc(C3(Nc4ncc5[nH]c(=O)n(CC)c5n4)CC3)cc2)CC1 (centres unmarked) [Compound 39]
< 30% | 60 to 90% | > 90% |  | C=CC(=O)N1CCN(C(CC2CC2)c2ccc(C3(Nc4ncc5[nH]c(=O)n(C(C)C)c5n4)CC3)cc2)CC1 (centres unmarked) [Compound 40]
< 30% | < 30% | 60 to 90% |  | N#Cc1ccnc(N2C(=O)CC[C@H]2C(=O)N(c2cncc(F)c2)[C@H](C(=O)NC2CC(F)(F)C2)c2ccccc2Cl)c1 [Ivosidenib, ivosidenib, reference compound]
